Test [1] deals with ob/ob mice. The experiment in a line: ob/ob mouse model of type 2 diabetes. The class given is in vivo. The note with it: three weeks. On the procedure: Male B6.VLep^ob(−/−) (ob/ob) mice and their lean littermates (Jackson Laboratory, Bar Harbor, Me.) were group housed and allowed free access to food (Purina 5015) and water. Mice were 6-7 weeks old at the start of each study. On day 0, animals were weighed and postprandial glucose levels determined (Medisense Precision-X™ glucometer, Abbott Laboratories). […] Animals were weighed, and postprandial glucose measurements were taken weekly throughout the study. On the last day of the study, 16 hours post dose (unless otherwise noted) the mice were euthanized via CO2, and blood samples (EDTA) were taken by cardiac puncture and immediately placed on ice. Whole blood measurements for HbA1c were taken with hand held meters (A1c NOW, Metrika Inc., Sunnyvale Calif.). Blood samples were then spun and plasma was removed and frozen until further analysis. The plasma triglyceride levels were determined according to instructions by the manufacturer (Infinity kit, Sigma Diagnostics, St. Louis Mo.).

The target of test [2] is T1, truncated human 11β-HSD-1 enzyme (24-287AA) (Homo sapiens, UniProt P28845).
T1 construct: truncated human 11β-HSD-1 enzyme (24-287AA); made in house; host or cells: E. coli (lysate)
T1 sequence (P28845 24-287): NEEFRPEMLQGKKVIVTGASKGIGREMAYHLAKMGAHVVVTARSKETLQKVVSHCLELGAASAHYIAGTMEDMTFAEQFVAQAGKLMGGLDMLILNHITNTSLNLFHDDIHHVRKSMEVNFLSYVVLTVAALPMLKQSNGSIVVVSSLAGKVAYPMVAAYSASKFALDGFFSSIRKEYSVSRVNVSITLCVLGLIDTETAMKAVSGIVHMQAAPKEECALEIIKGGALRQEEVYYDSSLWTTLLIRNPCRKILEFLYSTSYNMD
Description: human 11β-HSD-1 enzymatic Scintillation Proximity Assay (SPA). The class given is biochemical. On the procedure:
The ability of test compounds to inhibit human 11-βHSD-1 enzymatic activity in vitro was evaluated in a Scintillation Proximity Assay (SPA). Tritiated-cortisone substrate, NADPH cofactor and titrated compound were incubated with truncated human 11β-HSD-1 enzyme (24-287AA) at room temperature to allow the conversion to cortisol to occur. The reaction was stopped by adding a non-specific 11β-HSD inhibitor, 18β-glycyrrhetinic acid. The tritiated cortisol generated was then captured by a mixture of an anti-cortisol monoclonal antibody and SPA beads coated with anti-mouse antibodies. The reaction plate was shaken at room temperature and the radioactivity bound to SPA beads was then measured on a β-scintillation counter. The 11-βHSD-1 assay was carried out in 96-well microtiter plates in a total volume of 220 μl. To start the assay, 188 μl of master mix which contains 17.5 nM ^3H-cortisone, 157.5 nM cortisone, and […] NADPH was added to the wells. In order to drive the reaction in the forward direction, 1 mM G-6-P was also added. […] After shaking for 30 minutes, plates were read on a liquid scintillation counter Topcount. Percent inhibition was calculated based on the background and the maximal signal. […] Percent of inhibition of each compound was calculated relative to the maximal signal and IC50 curves were generated. […]
(Scintillation proximity formats need no separation of bound from free tracer.)

Test [3] addresses T2, human 11-β-HSD-2 (Homo sapiens, UniProt P80365).
T2 sequence (P80365 1-405): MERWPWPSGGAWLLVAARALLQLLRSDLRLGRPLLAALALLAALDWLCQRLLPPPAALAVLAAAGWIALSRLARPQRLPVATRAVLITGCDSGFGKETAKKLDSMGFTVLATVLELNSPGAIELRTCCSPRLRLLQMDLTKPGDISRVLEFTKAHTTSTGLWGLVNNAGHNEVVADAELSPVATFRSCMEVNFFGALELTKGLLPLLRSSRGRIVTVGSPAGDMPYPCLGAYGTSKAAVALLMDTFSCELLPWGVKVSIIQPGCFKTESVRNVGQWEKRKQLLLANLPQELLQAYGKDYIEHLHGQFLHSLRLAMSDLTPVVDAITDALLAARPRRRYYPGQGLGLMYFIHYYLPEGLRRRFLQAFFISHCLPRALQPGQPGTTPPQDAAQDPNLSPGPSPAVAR
Description: 11β-HSD-2 Scintillation Proximity Assay (tritiated cortisol, NAD+). The format is biochemical. The note with it: human enzyme, SPA.

Test [4] relates to male CD-1 mice. Description: Mouse dehydrocorticosterone challenge model. The class given is in vivo. The settings on record: 100 mpk, followed by 11-DHC challenge, 30 min after challenge. On the procedure: Male CD-1 (18-22 g) mice (Charles River, Madison, Wis.) were group housed and allowed free access to food and water. Mice are brought into a quiet procedure room for acclimation the night before the study. Animals are dosed with vehicle or compound at various times (pretreatment period) before being challenged with 11-dehydrocorticosterone (Steraloids Inc., Newport, R.I.). Thirty minutes after challenge, the mice are euthanized with CO2 and blood samples (EDTA) are obtained by cardiac puncture and immediately placed on ice. Blood samples were then spun, the plasma was removed, and the samples frozen until further analysis was performed. Corticosterone levels were obtained by ELISA (American Laboratory Prod., Co., Windham, N.H.) or HPLC/mass spectroscopy.

Here are results for one molecule from US20050245533A1, “Inhibitors of the 11-beta-hydroxysteroid dehydrogenaseType 1 enzyme and their therapeutic application” (priority 2004, published 2005).

As for `CC(C(=O)NC1C2CC3CC(C2)CC1C3)N1CCC(O)CC1` (stereo not shown) [Compound C, N-2-Adamantyl-2-(4-hydroxypiperidin-1-yl)propanamide], the “% HbA1c” value in test [1] (30 mpk twice daily) was 7.4 ± 0.7%; in test [1] (100 mpk twice daily) it was 5.7 ± 0.3%. Besides, the figures for the Plasma glucose in test [1] (30 mpk twice daily) and in test [1] (100 mpk twice daily) were 227 ± 17 mg/dL and 186 ± 18 mg/dL, respectively. Besides, the Plasma triglycerides is listed as 288 ± 26 mg/dL in test [1] (30 mpk twice daily) and 323 ± 34 mg/dL in test [1] (100 mpk twice daily). In addition, the figures for the IC50 in test [2] and in test [3] were 34 nM and greater than 10000 nM, respectively. The Plasma corticosterone level in test [4] (pretreatment period 0.5 hours) was 203 ± 19; in test [4] (pretreatment period 5 hours) it was 382 ± 40.
